Reference: patent US20190100534A1, “Cephem Compounds with Latent Reactive Groups” (Gladius Pharmaceuticals, Inc., priority 2017, published 2019)

Columns and labels:
EC (URMC-2) = experiment: MIC determination; assay type: cell-based, Escherichia coli; conditions: CAMH broth, 20 μM Apo-Transferrin, 37° C., 18 hours
Procedure, shortened: (§1)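 Broth microdilution in CAMH + 20 μM apo-transferrin; inoculum 0.5 McFarland, used within 30 min. Compound 64→0.125 μg/mL, twofold steps. 37 °C, 18 h. MIC = lowest clear-well concentration.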

EC (RR -1) = experiment: MIC determination; assay type: cell-based, Escherichia coli; conditions: CAMH broth, 20 μM Apo-Transferrin, 37° C., 18 hours
Procedure, shortened: as §1

EC (URMC-3) = experiment: MIC determination; assay type: cell-based, Escherichia coli; conditions: CAMH broth, 20 μM Apo-Transferrin, 37° C., 18 hours
Procedure, shortened: as §1

EC(KB2 CTX-M-15) = experiment: MIC determination; assay type: cell-based, Escherichia coli; conditions: CAMH broth, 20 μM Apo-Transferrin, 37° C., 18 hours
Procedure, shortened: as §1

EC(JMI OXA-48) = experiment: MIC determination; assay type: cell-based, Escherichia coli; conditions: CAMH broth, 20 μM Apo-Transferrin, 37° C., 18 hours
Procedure, shortened: as §1

EC(KB1 CTX-M-15) = experiment: MIC determination; assay type: cell-based, Escherichia coli; conditions: CAMH broth, 20 μM Apo-Transferrin, 37° C., 18 hours
Procedure, shortened: as §1

EC(ATCC NDM-1) = experiment: MIC determination; assay type: cell-based, Escherichia coli; conditions: CAMH broth, 20 μM Apo-Transferrin, 37° C., 18 hours
Procedure, shortened: as §1

EC (RR -2) = experiment: MIC determination; assay type: cell-based, Escherichia coli; conditions: CAMH broth, 20 μM Apo-Transferrin, 37° C., 18 hours
Procedure, shortened: as §1

EC (URMC-1) = experiment: MIC determination; assay type: cell-based, Escherichia coli; conditions: CAMH broth, 20 μM Apo-Transferrin, 37° C., 18 hours
Procedure, shortened: as §1

[1] = system: Pseudomonas aeruginosa PA-RR-(980151052); experiment: MIC determination; assay type: cell-based; conditions: PA-RR-(980151052); CAMH broth, 20 μM Apo-Transferrin, 37° C., 18 hours
Procedure, shortened: as §1

[2] = system: Pseudomonas aeruginosa (PA); experiment: MIC determination; assay type: cell-based; conditions: PA; CAMH broth, 20 μM Apo-Transferrin, 37° C., 18 hours
Procedure, shortened: as §1

[3] = system: Pseudomonas aeruginosa PA (URMC-2); experiment: MIC determination; assay type: cell-based; conditions: PA (URMC-2); CAMH broth, 20 μM Apo-Transferrin, 37° C., 18 hours
Procedure, shortened: as §1

[4] = system: Pseudomonas aeruginosa PA (URMC-3); experiment: MIC determination; assay type: cell-based; conditions: PA (URMC-3); CAMH broth, 20 μM Apo-Transferrin, 37° C., 18 hours
Procedure, shortened: as §1

[5] = system: Pseudomonas aeruginosa PA-RR-(G8062859); experiment: MIC determination; assay type: cell-based; conditions: PA-RR-(G8062859); CAMH broth, 20 μM Apo-Transferrin, 37° C., 18 hours
Procedure, shortened: as §1

[6] = system: Pseudomonas aeruginosa PA-RR-(G7304100); experiment: MIC determination; assay type: cell-based; conditions: PA-RR-(G7304100); CAMH broth, 20 μM Apo-Transferrin, 37° C., 18 hours
Procedure, shortened: as §1

KP (RR -1) = experiment: MIC determination; assay type: cell-based, Klebsiella pneumoniae; conditions: CAMH broth, 20 μM Apo-Transferrin, 37° C., 18 hours
Procedure, shortened: as §1

KP (URMC-1) = experiment: MIC determination; assay type: cell-based, Klebsiella pneumoniae; conditions: CAMH broth, 20 μM Apo-Transferrin, 37° C., 18 hours
Procedure, shortened: as §1

KP (URMC-3) = experiment: MIC determination; assay type: cell-based, Klebsiella pneumoniae; conditions: CAMH broth, 20 μM Apo-Transferrin, 37° C., 18 hours
Procedure, shortened: as §1

KP(JMI KPC-2) = experiment: MIC determination; assay type: cell-based, Klebsiella pneumoniae; conditions: CAMH broth, 20 μM Apo-Transferrin, 37° C., 18 hours
Procedure, shortened: as §1

KP (ATCC KPC-3) = experiment: MIC determination; assay type: cell-based, Klebsiella pneumoniae; conditions: CAMH broth, 20 μM Apo-Transferrin, 37° C., 18 hours
Procedure, shortened: as §1

KP (GJ 5659 TEM-26) = experiment: MIC determination; assay type: cell-based, Klebsiella pneumoniae; conditions: CAMH broth, 20 μM Apo-Transferrin, 37° C., 18 hours
Procedure, shortened: as §1

KP (URMC-2) = experiment: MIC determination; assay type: cell-based, Klebsiella pneumoniae; conditions: CAMH broth, 20 μM Apo-Transferrin, 37° C., 18 hours
Procedure, shortened: as §1

KP(GJ 5934 TEM-26) = experiment: MIC determination; assay type: cell-based, Klebsiella pneumoniae; conditions: CAMH broth, 20 μM Apo-Transferrin, 37° C., 18 hours
Procedure, shortened: as §1

KP(ATCC TEM-10/TEM-12) = assay type: cell-based, Klebsiella pneumoniae; conditions: CAMH broth, 20 μM Apo-Transferrin, 37° C., 18 hours
Procedure, shortened: as §1

ENC (ATCC NDM-1) = experiment: MIC determination; assay type: cell-based, Enterobacter cloacae; conditions: CAMH broth, 20 μM Apo-Transferrin, 37° C., 18 hours
Procedure, shortened: as §1

EA (URMC -3) = experiment: MIC determination; assay type: cell-based; conditions: CAMH broth, 20 μM Apo-Transferrin, 37° C., 18 hours
Experimental: (§2) Sterile technique was used throughout these experiments. Suspensions of organisms were removed from storage (−80° C.) and partially thawed. Partially thawed organisms (1 μL) were inoculated into 3 mL sterile LB Broth in a sterile culture tube and capped, then cultured at 37° C. with shaking for 4-5 hours until the optical density at 600 nm (OD600) was greater than 0.1 on a single beam spectrophotometer.
(§3) The concentration of organisms was adjusted to 0.08-0.1 OD600 (0.5 McFarland units) by dilution with sterile cation-adjusted Meuller-Hinton (CAMH) broth. The suspensions were used within 30 minutes of preparation.
(§4) A stock solution was made of each test compound by measuring 6.4 mg of the compound on an analytical balance and dissolving it in DMSO (1 mL) to get a transparent solution. The solutions were stored at −20° C. and thawed prior to use.
(§5) Sterile CAMH broth (200 μL) containing 20 μM Apo-Transferrin was pipetted into the first row of 8 columns of a sterile, round-bottomed, transparent, 96-well microplate using an 8-channel pipette equipped with sterile tips. One hundred μL was pipetted into the wells of the remaining 11 rows.
To each well of the first row was pipetted 2.0 μL of the 6.4 mg/mL stock test compound stock solution to give 1:100 dilutions and a final concentration of 64 μg/mL and mixed.
(§6) With an 8-channel pipette equipped with sterile tips, 100 μL of the first row solution was transferred to the second row and mixed. The process was repeated for the second to third rows and continued through row 11. One hundred μL from row 11 was removed and discarded so that all 12 rows contained 100 μL. Row 12 contained no compound and rows 1-11 contained 64, 32, 16, 8, 4, 2, 1, 0.5, 0.25, 0.125, […] of a given compound.
(§7) Inoculant suspensions (0.5 μL) were added to the 12 wells of each column. The plates were then covered and incubated at 37° C. overnight for 18 hours.
(§8) For each organism the MIC was determined by identifying the transparent well with the lowest test compound concentration.

ENA (URMC-1) = experiment: MIC determination; assay type: cell-based, Enterobacter aerogenes; conditions: CAMH broth, 20 μM Apo-Transferrin, 37° C., 18 hours
Experimental: as §2, §3, §4, §5, §6, §7, §8

ENA (URMC-2) = experiment: MIC determination; assay type: cell-based, Enterobacter aerogenes; conditions: CAMH broth, 20 μM Apo-Transferrin, 37° C., 18 hours
Experimental: as §2, §3, §4, §5, §6, §7, §8

Compound: CC(C)(O/N=C(\C(=O)N[C@@H]1C(=O)N2C(C(=O)O)=C(C=Cc3ccc(C[n+]4ccc5cc(O)c(O)cc5c4)cc3)CS[C@H]12)c1csc(N)n1)C(=O)O (mixture of isomers) [Compound 435, 2-(4-((E/Z)-2-((6R,7R)-7-((Z)-2-(2-aminothiazol-4-yl)-2-(((2-carboxypropan-2-yl)oxy)imino)acetamido)-2-carboxy-8-oxo-5-thia-1-azabicyclo[4.2.0]oct-2-en-3-yl)vinyl)benzyl)-6,7-dihydroxyisoquinolin-2-ium]
- Minimum Inhibitory Concentrations, EC (URMC-2) (EC (URMC-2)): ≤0.06 microgram/mL
- Mimimum Inhibitory Concentrations, EC (RR -1) (EC (RR -1)): ≤0.06 microgram/mL
- Minimum Inhibitory Concentrations, EC (URMC-3) (EC (URMC-3)): 0.5 microgram/mL
- Minimum Inhibitory Concentrations, EC(KB2 CTX-M-15) (EC(KB2 CTX-M-15)): 0.5 microgram/mL
- Minimum Inhibitory Concentrations, EC(JMI OXA-48) (EC(JMI OXA-48)): 0.5 microgram/mL
- Minimum Inhibitory Concentrations, EC(KB1 CTX-M-15) (EC(KB1 CTX-M-15)): 0.13 microgram/mL
- Minimum Inhibitory Concentrations, EC(ATCC NDM-1) (EC(ATCC NDM-1)): >64 microgram/mL
- Mimimum Inhibitory Concentrations, EC (RR -2) (EC (RR -2)): ≤0.06 microgram/mL
- Minimum Inhibitory Concentrations, EC (URMC-1) (EC (URMC-1)): ≤0.06 microgram/mL
- Minimum Inhibitory Concentrations, PA-RR-(980151052) [1]: 0.13 microgram/mL
- Minimum Inhibitory Concentrations, PA [2]: ≤0.06 microgram/mL
- Minimum Inhibitory Concentrations, PA (URMC-2) [3]: 0.25 microgram/mL
- Minimum Inhibitory Concentrations, PA (URMC-3) [4]: ≤0.06 microgram/mL
- Minimum Inhibitory Concentrations, PA-RR-(G8062859) [5]: 0.5 microgram/mL
- Minimum Inhibitory Concentrations, PA-RR-(G7304100) [6]: ≤0.06 microgram/mL
- Mimimum Inhibitory Concentrations, KP (RR -1) (KP (RR -1)): ≤0.06 microgram/mL
- Minimum Inhibitory Concentrations, KP (URMC-1) (KP (URMC-1)): ≤0.06 microgram/mL
- Minimum Inhibitory Concentrations, KP (URMC-3) (KP (URMC-3)): ≤0.06 microgram/mL
- Minimum Inhibitory Concentrations, KP(JMI KPC-2) (KP(JMI KPC-2)): 4 microgram/mL
- Minimum Inhibitory Concentrations, KP (ATCC KPC-3) (KP (ATCC KPC-3)): >64 microgram/mL
- Minimum Inhibitory Concentrations, KP (GJ 5659 TEM-26) (KP (GJ 5659 TEM-26)): 0.13 microgram/mL
- Minimum Inhibitory Concentrations, KP (URMC-2) (KP (URMC-2)): ≤0.06 microgram/mL
- Minimum Inhibitory Concentrations, KP(GJ 5934 TEM-26) (KP(GJ 5934 TEM-26)): <0.06 microgram/mL
- Minimum Inhibitory Concentrations, KP(ATCC TEM-10/TEM-12) (KP(ATCC TEM-10/TEM-12)): 2 microgram/mL
- Mimimum Inhibitory Concentrations, ENC (ATCC NDM-1) (ENC (ATCC NDM-1)): >64 microgram/mL
- Mimimum Inhibitory Concentrations, EA (URMC -3) (EA (URMC -3)): 0.5 microgram/mL
- Minimum Inhibitory Concentrations, ENA (URMC-1) (ENA (URMC-1)): 0.13 microgram/mL
- Minimum Inhibitory Concentrations, ENA (URMC-2) (ENA (URMC-2)): 0.13 microgram/mL
